Laboratory results: patent US20110028566A1, “COMPOSITIONS AND PRODUCTS CONTAINING CYCLOALIPHATIC DIOL ANTIMICROBIAL AGENTS AND METHODS OF USING THE COMPOSITIONS AND PRODUCTS” (EASTMAN CHEMICAL COMPANY, priority 2009, published 2011)

Assays:
Aspergillus niger = assay: Microbial challenge testing in BPW; type: cell-based; settings: for Grade code, A. niger, 3 Day / Grade code, A. niger, 13 Day / Grade code, A. niger, 30 Day: BPW, w/v % in label, average of replicates
Description: The microorganisms used in challenge tests are given in Table 3, designated as either ATCC (American Type Culture Collection) or wild type. These wild type organisms were problematic organisms previously isolated from chemical products. In the description for each organism, the bacteria are indicated as either GN (Gram negative) or GP (Gram positive).
All of the microorganisms were grown in Tryptose Soy Broth (TSB), DIFCO™ available from Becton, Dickinson and Company, containing 1% dextrose. Aspergillus niger and Candida albicans were incubated at 22° C.±2° C. for at least 96 hours. All bacteria were incubated at 35° C.±2° C. in a humidified incubator for at least 96 hours.
Aspergillus niger and Candida albicans were also grown on Sabouraud dextrose agar (SDA) at 22° C.±2° C. for 7 to 14 days or until full sporulation was achieved.
The following procedure was followed to determine the amount of each challenge material (inoculum broth) required to produce a 10^8 cfu/mL challenge, which is equivalent to a final test-sample microbial concentration of 10^5 to 10^6 cfu (colony-forming units)/mL.
Using a sterile serological pipette, 1 mL of the growth from each TSB culture was transferred into tubes containing 9 mL phosphate buffer (pH 7.2) and mixed thoroughly. This process was repeated to make serial 1:10 dilutions. Then 0.1 mL of each sample and dilution was inoculated onto agar plates to produce the equivalent of a further 1:10 dilution. C. albicans and A. niger were inoculated onto SDA and bacteria were inoculated onto Plate Count Agar (PCA), DIFCO™ available from Becton, Dickinson and Company. The 0.1 mL aliquots were evenly distributed on the plates using the spread-plate technique. The spread-plate technique is performed by spreading the aliquot over the entire plate surface using a sterile spreading rod while rotating the plate with a rotary auto-plater. After the inoculum was absorbed completely, each plate was inverted and incubated (fungi at 22° C.±2° C. and bacteria at 35° C.±2° C.).
After incubation for at least 48 hours, colonies that had developed on the agar plates were counted and recorded with the corresponding dilution. If counting had to be delayed temporarily, plates were refrigerated, preferably no more than 24 hours, until they could be counted. The number of cfu/mL was determined by multiplying the count by the dilution factor for that particular plate.
Turbidity in Nepholemetric Turbidity Units (NTU) was measured for each serial dilution using the HF-Micro 100 Model Turbidimeter. For each microorganism, the plate counts were compared to the turbidity readings.
Aspergillus niger cultures were harvested and spores dislodged from the SDA on which they were grown by rubbing the growth gently with a sterile inoculating loop. The spores were then mixed into the broth culture that had been incubated with a sterile magnetic stir bar to reduce pellicle formation. The spore-culture mixture was filtered repeatedly through sterile, non-absorbent cotton and harvested repeatedly, adjusting vegetative cells and spores to a level of 1.0×10^8. A hemocytometer was used to verify the final challenge concentration.
Control substrates (“broth alone”) were prepared for each microorganism separately in triplicate by adding 13.5 mL of BPW (pH 7.0) containing 1% (w/v) dextrose to each 20-mL glass tube; then adding 1.5 mL challenge material to produce a final concentration at time zero of 10^5 to 10^6 cfu/mL and a total volume of 15 mL.
Test sample substrates were prepared containing each test material (1,4-CHDM, etc) or combination of test materials at the concentrations shown in Tables 5 and 6.

Trichophyton rubrum = assay: Challenge testing with pathogenic fungi in SDB; type: cell-based; settings: w/v % in label, INT respiratory dye; for Grade code, Pathogenic Fungi, T. ruburm, 3 Days: 3 days incubation; for Grade code, Pathogenic Fungi, T. ruburm, 14 Days: 14 days incubation; for Grade code, Pathogenic Fungi, T. ruburm, 30 Days: 30 days incubation
Description: Both M. canis and Trichophyton rubrum were grown on Sabouraud dextrose broth (SDB) (pH 5.6), while Malassezia fufur was grown in SDB supplemented with 2% (v/v) of olive oil and 0.2% (v/v) of Tween™ 80; incubation was at 22° C.±2° C. under continuous agitation by stirring for 10 days. The organisms were grown to a cell concentration of between 10^3 and 10^4 cfu/mL. The actual inoculation cell concentration of these challenges was determined by diluting in sterile buffer water and (spread-plate method) plating for enumeration.
Challenge organisms were used to inoculate tubes containing each test material (CHDM, etc) or combination of test materials, at concentrations given in Table 5, in SDB (or for M. furfur, in SDB supplemented with olive oil and Tween™ 80). The inoculations were in the amount of 1.5 mL aliquots of each culture with static incubation at 22±2° C. Subcultures were made after 3-, 14-, and 30-days incubation. All challenges were conducted in triplicate. In the case of M. canis, the growth response was assessed by the visual presence or absence of growth in the tubes; in the case of T. rubrum, a respiratory dye (0.2% w/v aqueous INT solution: 2-(4-iodophenyl)-3-(4-nitrophenyl)-5-phenyl tetrazolium chloride) was added to the tubes, turning red if the organism was viable; and, finally, in the case of M. furfur, the growth response was assessed based upon visible pellicle formation in the tubes at the meniscus. The fungal growth in each tube was assigned a grade code as follows:
0: No visible growth 1: Some growth in tube 2: Moderate growth in tube 3: Good growth in tube 4: Extreme growth in tube
All test material concentrations are given as w/v %. The grade codes given are the average of the grade codes for duplicate or triplicate samples.
Table 5 compares the antimicrobial activity of 1,4-CHDM (AB) alone to 1,4-CHDM in combination with EDTA, phenoxyethanol (PE), and caprylyl glycol (CG). CHDM at 0.5% was tested with EDTA, and at 1.25 and 2.5% with EDTA, PE, and CG. (Note that the combination of CHDM with only EDTA was not tested against pathogenic fungi.) Results are also given for EDTA, PE, and CG alone, so the result for each mixture can be compared to the antimicrobial activity for each of its components individually. […] Possible synergies were determined by treating the grade code as an estimate of the log of the microbial count (log of cfu/mL). Log reductions can then be estimated by subtracting each grade code from the grade code for broth alone (grade code 5, except for the pathogenic fungi).

SMILES: CCCCCCC(O)CO (centres unmarked) [CG, 1,2-octanediol]
- Grade code, A. niger, 3 Day (Aspergillus niger; 3 days incubation): 4
- Grade code, A. niger, 13 Day (Aspergillus niger; 13 days incubation, listed as 0.25% CG): 4
- Grade code, A. niger, 13 Day (Aspergillus niger; 13 days incubation, listed as 0.5% CG): 2 (Countable (11 to 100 colonies))
- Grade code, A. niger, 30 Day (Aspergillus niger; 30 days incubation, listed as 0.25% CG): 4
- Grade code, A. niger, 30 Day (Aspergillus niger; 30 days incubation, listed as 0.5% CG): 1 (Countable (1 to 10 colonies))
- Grade code, Pathogenic Fungi, T. ruburm, 3 Days (Trichophyton rubrum): 0
- Grade code, Pathogenic Fungi, T. ruburm, 14 Days (Trichophyton rubrum): 0
- Grade code, Pathogenic Fungi, T. ruburm, 30 Days (Trichophyton rubrum): 0

SMILES: O=C([O-])CN(CCN(CC(=O)O)CC(=O)O)CC(=O)[O-].[Na+].[Na+] [EDTA, ethylenediaminetetraacetic acid disodium salt]
- Grade code, A. niger, 3 Day (Aspergillus niger; 3 days incubation): 4
- Grade code, A. niger, 13 Day (Aspergillus niger; 13 days incubation): 4
- Grade code, A. niger, 30 Day (Aspergillus niger; 30 days incubation): 4
- Grade code, Pathogenic Fungi, T. ruburm, 3 Days (Trichophyton rubrum): 1
- Grade code, Pathogenic Fungi, T. ruburm, 14 Days (Trichophyton rubrum): 0
- Grade code, Pathogenic Fungi, T. ruburm, 30 Days (Trichophyton rubrum): 0

SMILES: OCC1CCC(CO)CC1 (centres unmarked) [1,4-CHDM, 1,4-cyclohexanedimethanol]
- Grade code A. niger (Aspergillus niger; 0.5%, 3 days incubation): 4
- Grade code A. niger (Aspergillus niger; 0.5%, 13 days incubation): 4
- Grade code A. niger (Aspergillus niger; 0.5%, 30 days incubation): 4
- Grade code A. niger (Aspergillus niger; 1.25%, 3 days incubation): 4
- Grade code A. niger (Aspergillus niger; 1.25%, 13 days incubation): 4
- Grade code A. niger (Aspergillus niger; 1.25%, 30 days incubation): 4
- Grade code A. niger (Aspergillus niger; 2.5%, 3 days incubation): 2 (Countable (11 to 100 colonies))
- Grade code A. niger (Aspergillus niger; 2.5%, 13 days incubation): 1 (Countable (1 to 10 colonies))
- Grade code A. niger (Aspergillus niger; 2.5%, 30 days incubation): 2.3
- Grade code, A. niger, 3 Day (Aspergillus niger; 3 days incubation, listed as 0.5% AB): 4
- Grade code, A. niger, 3 Day (Aspergillus niger; 3 days incubation, listed as 1.25% AB): 4
- Grade code, A. niger, 3 Day (Aspergillus niger; 3 days incubation, listed as 2.5% AB): 2 (Countable (11 to 100 colonies))
- Grade code, A. niger, 13 Day (Aspergillus niger; 13 days incubation, listed as 0.5% AB): 4
- Grade code, A. niger, 13 Day (Aspergillus niger; 13 days incubation, listed as 1.25% AB): 4
- Grade code, A. niger, 13 Day (Aspergillus niger; 13 days incubation, listed as 2.5% AB): 1 (Countable (1 to 10 colonies))
- Grade code, A. niger, 30 Day (Aspergillus niger; 30 days incubation, listed as 0.5% AB): 4
- Grade code, A. niger, 30 Day (Aspergillus niger; 30 days incubation, listed as 1.25% AB): 4
- Grade code, A. niger, 30 Day (Aspergillus niger; 30 days incubation, listed as 2.5% AB): 2.3
- Grade code, Pathogenic Fungi, T. ruburm, 3 Days (Trichophyton rubrum; listed as 0.5% AB): 1
- Grade code, Pathogenic Fungi, T. ruburm, 3 Days (Trichophyton rubrum; listed as 1.25% AB): 0
- Grade code, Pathogenic Fungi, T. ruburm, 3 Days (Trichophyton rubrum; listed as 2.5% AB): 0
- Grade code, Pathogenic Fungi, T. ruburm, 14 Days (Trichophyton rubrum; listed as 0.5% AB): 1
- Grade code, Pathogenic Fungi, T. ruburm, 14 Days (Trichophyton rubrum; listed as 1.25% AB): 0
- Grade code, Pathogenic Fungi, T. ruburm, 14 Days (Trichophyton rubrum; listed as 2.5% AB): 0
- Grade code, Pathogenic Fungi, T. ruburm, 30 Days (Trichophyton rubrum; listed as 0.5% AB): 1
- Grade code, Pathogenic Fungi, T. ruburm, 30 Days (Trichophyton rubrum; listed as 1.25% AB): 0
- Grade code, Pathogenic Fungi, T. ruburm, 30 Days (Trichophyton rubrum; listed as 2.5% AB): 0

SMILES: CC1(C)C(O)C(C)(C)C1O (centres unmarked) [TMCD, 2,2,4,4-tetramethyl-1,3-cyclobutanediol]
- Grade code A. niger (Aspergillus niger; 0.5%, 3 days incubation): 5
- Grade code A. niger (Aspergillus niger; 0.5%, 13 days incubation): 5
- Grade code A. niger (Aspergillus niger; 0.5%, 30 days incubation): 5
- Grade code A. niger (Aspergillus niger; 1.25%, 3 days incubation): 4
- Grade code A. niger (Aspergillus niger; 1.25%, 13 days incubation): 4
- Grade code A. niger (Aspergillus niger; 1.25%, 30 days incubation): 4
- Grade code A. niger (Aspergillus niger; 2.5%, 3 days incubation): 3 (Individual colonies not countable; >75% of plate covered with growth)
- Grade code A. niger (Aspergillus niger; 2.5%, 13 days incubation): 2 (Countable (11 to 100 colonies))
- Grade code A. niger (Aspergillus niger; 2.5%, 30 days incubation): 3 (Individual colonies not countable; >75% of plate covered with growth)
